These results are taken from patent US12378256B2, “Heterocyclic compound” (Takeda Pharmaceutical Company Limited, priority 2017, dated 2025).

This assay deals with T1, human M1 receptor (hCHRM1) (Homo sapiens, UniProt P11229).
T1 construct: expressed in transfected cells; host or cells: CHO-K1
T1 sequence (P11229 1-460): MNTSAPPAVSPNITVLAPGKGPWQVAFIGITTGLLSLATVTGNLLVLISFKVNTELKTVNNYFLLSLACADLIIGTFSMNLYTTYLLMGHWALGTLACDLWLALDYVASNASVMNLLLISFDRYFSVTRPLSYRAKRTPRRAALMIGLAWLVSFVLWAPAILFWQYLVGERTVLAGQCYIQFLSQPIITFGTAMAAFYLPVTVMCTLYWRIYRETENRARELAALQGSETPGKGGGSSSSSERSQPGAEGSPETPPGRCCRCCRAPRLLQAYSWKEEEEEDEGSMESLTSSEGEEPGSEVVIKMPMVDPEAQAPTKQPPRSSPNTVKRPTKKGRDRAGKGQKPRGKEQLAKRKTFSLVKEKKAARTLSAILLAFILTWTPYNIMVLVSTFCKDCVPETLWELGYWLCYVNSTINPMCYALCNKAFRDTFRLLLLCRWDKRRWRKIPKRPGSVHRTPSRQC
Kind of assay: Measurement of M1 receptor positive allosteric modulator (M1PAM) activity, calcium fluorescence with acetylcholine at EC20. It counts as cell-based. To be noted: for activity (%) at 10 μM: 10 μM test compound, 100% = 1 μM acetylcholine, 0% = DMSO; for EC50: CHO-K1 cells expressing hCHRM1, acetylcholine at EC20 (final 0.8-1.0 nM), read-out: IP value (inflection point in the concentration-dependent curve). As for the experimental part:
Measurement of M1 Receptor Positive Allosteric Modulator (M1PAM) Activity
The activity of a test compound in the presence of acetylcholine at EC20 concentration (final concentration 0.8-1.0 nM), which affords an action corresponding to about 20% of the maximum activity, was measured as PAM activity. The method is as follows. CHO-K1 cells stably expressing a human M1 receptor (hCHRM1) were plated on a 384-well black clear bottom plate (BD Falcon) at 5,000 cells/well, and cultured in an incubator at 37° C., 5% CO2 for 1 day. The medium in the cell plate was removed, and assay buffer A containing calcium indicator (Recording medium (DOJINDO LABORATORIES), 0.1% BSA (Wako Pure Chemical Industries, Ltd.), 2.5 μg/mL Fluo-4 AM (DOJINDO LABORATORIES), 0.08% Pluronic F127 (DOJINDO LABORATORIES), 1.25 mM probenecid (DOJINDO LABORATORIES)) was added at 30 μL/well. The cells were left standing in the incubator at 37° C., 5% CO2 for 30 min, and further left standing at room temperature for 30 min. A test compound prepared by diluting with assay buffer B (HBSS (Invitrogen), 20 mM HEPES (Invitrogen), 0.1% BSA) containing 3.2-4.0 nM acetylcholine was added at 10 μL/well, and the fluorescence was measured by FDSS/μCELL (Hamamatsu Photonics K.K.) for 1 min every for 1 second. With the definition that the amount of change in the fluorescence on addition of acetylcholine (final concentration 1 μM) is 100% and that on addition of DMSO instead of a test compound is 0%, the activity (%) of the test compound was calculated, and the inflection point in the concentration-dependent curve of the test compound was calculated as IP values.

Regarding `Cn1cc(-c2ccc(Cc3cc(C(=O)N[C@H]4CCOC[C@@H]4O)nc4c3OCC4)cn2)cn1` [Example 60, 1,5-anhydro-2,3-dideoxy-3-(((7-((6-(1-methyl-1H-pyrazol-4-yl)pyridin-3-yl)methyl)-2,3-dihydrofuro[3,2-b]pyridin-5-yl)carbonyl)amino)-L-threo-pentitol], the “activity (%) at 10 μM” value was determined as 104% and the EC50 came out at 1.6 nM.

Take `Cn1cc(-c2ccc(Cc3cc(C(=O)N[C@H]4CCCC[C@@H]4O)nc4c3OCC4)cn2)cn1` [Example 61, N-((1S,2S)-2-hydroxycyclohexyl)-7-((6-(1-methyl-1H-pyrazol-4-yl)pyridin-3-yl)methyl)-2,3-dihydrofuro[3,2-b]pyridine-5-carboxamide]: the “activity (%) at 10 μM” value is recorded as 104% and the EC50 is 1.8 nM.

As to `Cc1cc2nc(C(=O)N[C@H]3CCOC[C@@H]3O)cc(Cc3ccc(-c4cn(C)nn4)cc3)c2o1` [Example 64, 1,5-anhydro-2,3-dideoxy-3-(((2-methyl-7-(4-(1-methyl-1H-1,2,3-triazol-4-yl)benzyl)furo[3,2-b]pyridin-5-yl)carbonyl)amino)-L-threo-pentitol], the “activity (%) at 10 μM” value is given as 109% and the EC50 was 2.4 nM.

As to `CNC(=O)c1ccc(Cc2cc(C(=O)N[C@H]3CCOC[C@@H]3O)nc3cc(C)oc23)cc1F` [Example 65, 1,5-anhydro-2,3-dideoxy-3-(((7-(3-fluoro-4-(methylcarbamoyl)benzyl)-2-methylfuro[3,2-b]pyridin-5-yl)carbonyl)amino)-L-threo-pentitol], the “activity (%) at 10 μM” value is 106% and the EC50 was 8.5 nM.

`Cn1cc(-c2ccc(C(F)c3cc(C(=O)N[C@H]4CCCC[C@@H]4O)nc4ccoc34)cn2)cn1` (stereo partly drawn) [Example 70, 7-(fluoro(6-(1-methyl-1H-pyrazol-4-yl)pyridin-3-yl)methyl)-N-((1S,2S)-2-hydroxycyclohexyl)furo[3,2-b]pyridine-5-carboxamide]: the “activity (%) at 10 μM” value is recorded as 99% and the EC50 is 1.2 nM.

On to `CCNC(=O)c1ccc(Cc2cc(C(=O)N[C@H]3CCOC[C@@H]3O)nc3c2OCC3)cc1F` [Example 81, 1,5-anhydro-2,3-dideoxy-3-(((7-(4-(ethylcarbamoyl)-3-fluorobenzyl)-2,3-dihydrofuro[3,2-b]pyridin-5-yl)carbonyl)amino)-L-threo-pentitol], for which the “activity (%) at 10 μM” value stood at 108% and the EC50 is 5.3 nM.

On to `O=C(N[C@H]1CCOC[C@@H]1O)c1cc(Cc2ccc(C(=O)NC3CC3)c(F)c2)c2c(n1)CCO2` [Example 82, 1,5-anhydro-3-(((7-(4-(cyclopropylcarbamoyl)-3-fluorobenzyl)-2,3-dihydrofuro[3,2-b]pyridin-5-yl)carbonyl)amino)-2,3-dideoxy-L-threo-pentitol], for which the “activity (%) at 10 μM” value is on record as 110% and the EC50 is 6.4 nM.

Regarding `O=C(N[C@H]1CCOC[C@@H]1O)c1cc(Cc2ccc(C(=O)NC[C@H]3CCCO3)c(F)c2)c2c(n1)CCO2` [Example 88, 1,5-anhydro-2,3-dideoxy-3-(((7-(3-fluoro-4-(((2R)-tetrahydrofuran-2-ylmethyl)carbamoyl)benzyl)-2,3-dihydrofuro[3,2-b]pyridin-5-yl)carbonyl)amino)-L-threo-pentitol], the “activity (%) at 10 μM” value amounted to 111% and the EC50 turned out to be 7.6 nM.

As to `CC(C)(C)OCCNC(=O)c1ccc(Cc2cc(C(=O)N[C@H]3CCOC[C@@H]3O)nc3c2OCC3)cc1F` [Example 89, 1,5-anhydro-3-(((7-(4-((2-tert-butoxyethyl)carbamoyl)-3-fluorobenzyl)-2,3-dihydrofuro[3,2-b]pyridin-5-yl)carbonyl)amino)-2,3-dideoxy-L-threo-pentitol], the “activity (%) at 10 μM” value was 110% and the EC50 was 25 nM.

On to `O=C(N[C@H]1CCOC[C@@H]1O)c1cc(Cc2ccc(C(=O)NCc3ccc(O)cc3)c(F)c2)c2c(n1)CCO2` [Example 90, 1,5-anhydro-2,3-dideoxy-3-(((7-(3-fluoro-4-((4-hydroxybenzyl)carbamoyl)benzyl)-2,3-dihydrofuro[3,2-b]pyridin-5-yl)carbonyl)amino)-L-threo-pentitol], for which the “activity (%) at 10 μM” value amounted to 113% and the EC50 was found to be 1.4 nM.

Regarding `O=C(O)CNC(=O)c1ccc(Cc2cc(C(=O)N[C@H]3CCOC[C@@H]3O)nc3c2OCC3)cc1F` [Example 96, ((2-fluoro-4-((5-(((3R,4S)-3-hydroxytetrahydro-2H-pyran-4-yl)carbamoyl)-2,3-dihydrofuro[3,2-b]pyridin-7-yl)methyl)benzoyl)amino)acetic acid], the “activity (%) at 10 μM” value is on record as 107% and the EC50 was determined as 11 nM.

For `CC(C)SCCNC(=O)c1ccc(Cc2cc(C(=O)N[C@H]3CCOC[C@@H]3O)nc3c2OCC3)cc1F` [Example 97, 1,5-anhydro-2,3-dideoxy-3-(((7-(3-fluoro-4-((2-(isopropylsulfanyl)ethyl)-carbamoyl)benzyl)-2,3-dihydrofuro[3,2-b]pyridin-5-yl)carbonyl)amino)-L-threo-pentitol], the “activity (%) at 10 μM” value was 107% and the EC50 was 5.1 nM.

As to `CN(C)C(=O)CNC(=O)c1ccc(Cc2cc(C(=O)N[C@H]3CCOC[C@@H]3O)nc3c2OCC3)cc1F` [Example 100, 1,5-anhydro-2,3-dideoxy-3-(((7-(4-((2-(dimethylamino)-2-oxoethyl)carbamoyl)-3-fluorobenzyl)-2,3-dihydrofuro[3,2-b]pyridin-5-yl)carbonyl)amino)-L-threo-pentitol], the “activity (%) at 10 μM” value is given as 103% and the EC50 came to 3.8 nM.

As to `O=C(N[C@H]1CCOC[C@@H]1O)c1cc(Cc2ccc(C(=O)NC[C@H]3CCCO3)c(F)c2)c2occc2n1` [Example 105, 1,5-anhydro-2,3-dideoxy-3-(((7-(3-fluoro-4-(((2R)-tetrahydrofuran-2-ylmethyl)carbamoyl)benzyl)-furo[3,2-b]pyridin-5-yl)carbonyl)amino)-L-threo-pentitol], the “activity (%) at 10 μM” value worked out at 105% and the EC50 is 4.3 nM.

For `COCCNC(=O)c1ccc(C(C)c2cc(C(=O)N[C@H]3CCOC[C@@H]3O)nc3ccoc23)cc1F` (stereo partly drawn) [Example 111, 1,5-anhydro-2,3-dideoxy-3-(((7-(1-(3-fluoro-4-((2-methoxyethyl)carbamoyl)phenyl)ethyl)furo[3,2-b]pyridin-5-yl)carbonyl)amino)-L-threo-pentitol], the “activity (%) at 10 μM” value was determined as 107% and the EC50 was 8.8 nM.

Take `CN1Cc2cc(Cc3cc(C(=O)N[C@H]4CCOC[C@@H]4O)nc4c3OCC4)ccc2C1=O` [Example 113, 1,5-anhydro-2,3-dideoxy-3-(((7-((2-methyl-1-oxo-2,3-dihydro-1H-isoindol-5-yl)methyl)-2,3-dihydrofuro[3,2-b]pyridin-5-yl)carbonyl)amino)-L-threo-pentitol]: the “activity (%) at 10 μM” value is reported as 109% and the EC50 was determined as 21 nM.
